The values below come from patent US7563774B2, “Combination of FBPase inhibitors and antidiabetic agents useful for the treatment of diabetes” (Metabasis Therapeutics, Inc., priority 2000, dated 2009).

For data set [1], the system named is Sprague-Dawley rats. Briefly: Glucose lowering, hepatic and plasma drug levels after intraperitoneal dosing of normal fasted rats (Example F). Type of data set: in vivo, rat. The settings on record: 1 hour post injection. How it is done:
Sprague-Dawley rats (250-300 g) were fasted for 18 hours and then dosed intraperitoneally either with saline or FBPase inhibitor. The vehicle used for drug administration was 10 mM bicarbonate. One hour post injection, rats were anesthetized with halothane, and liver and blood samples were taken and processed as described in Example E. The neutralized liver extracts were analyzed for FBPase inhibitor content by HPLC. A reverse phase YMC ODS AQ column (250×4.6 […]) was used and eluted with a gradient from 10 mM sodium phosphate pH 5.5 to 75% acetonitrile. Absorbance was monitored at 310 nm. Glucose was measured in the blood sample as described in Example C. Plasma was prepared by centrifugation and extracted by addition of methanol to 60% (v/v). The methanolic extract was clarified by centrifugation and filtration and then analyzed by HPLC as described above.

A further data set relates to rat hepatocytes. Nature of the data set: Glucose production and fructose-1,6-bisphosphate levels in rat hepatocytes (Example D). Type of data set: cell-based. How it is done:
Hepatocytes were prepared from fed Sprague-Dawley rats (250-300 g) according to the procedure of Berry and Friend (Berry, M. N., Friend, D. S., 1969, J. Cell. Biol. 43, 506-520) as modified by Groen (Groen, A. K., Sips, H. J., Vervoom, R. C., Tager, J. M., 1982, Eur. J. Biochem. 122, 87-93). Hepatocytes (75 mg wet weight/mL) were incubated in 1 mL Krebs-bicarbonate buffer containing 10 mM Lactate, 1 mM pyruvate, 1 mg/mL BSA, and test compound concentrations from 0 to 500 μM. Incubations were carried out in a 95% oxygen, 5% carbon dioxide atmosphere in closed, 50-mL Falcon tubes submerged in a rapidly shaking water bath (37° C.). After 1 hour, an aliquot (0.25 mL) was removed, transferred to an Eppendorf tube and centrifuged. 50 μL of supernatant was then assayed for glucose content using a Sigma Glucose Oxidase kit as per the manufacturer's instructions.
Rat hepatocytes were isolated and incubated as described in Example C. Cell extracts, were analyzed for glucose content as described in Example C, and also for fructose 1,6-bisphosphate. Fructose 1,6-bisphosphate was assayed spectrophotometrically by coupling its enzymatic conversion to glycerol 3-phosphate to the oxidation of NADH, which was monitored at 340 nm. Reaction mixtures (1 mL) consisted of 200 mM Tris-HCl, pH 7.4, 0.3 mM NADH, 2 units/mL glycerol 3-phosphate dehydrogenase, 2 units/ml triosephosphate isomerase, and 50-100 μL cell extract. After a 30 minute preincubation at 37° C., 1 unit/ml of aldolase was added and the change in absorbance measured until a stable value was obtained. 2 moles of NADH are oxidized in this reaction per mole of fructose 1,6-bisphosphate present in the cell extract.

For data set [2], the system named is gluconeogenesis in rat hepatocytes. Briefly: Inhibition of gluconeogenesis in rat hepatocytes (Example C). The settings on record: Hepatocyte, glucose production from lactate/pyruvate, 1 hour. Type of data set: cell-based.
Method: Hepatocytes (75 mg wet weight/mL) were incubated in 1 mL Krebs-bicarbonate buffer containing 10 mM Lactate, 1 mM pyruvate, 1 mg/mL BSA, and test compound concentrations from 0 to 500 μM. […] After 1 hour, an aliquot (0.25 mL) was removed, transferred to an Eppendorf tube and centrifuged. 50 μL of supernatant was then assayed for glucose content using a Sigma Glucose Oxidase kit as per the manufacturer's instructions.
Data set [3] deals with Sprague-Dawley rats. Nature of the data set: Drug metabolite levels, blood glucose and hepatic fructose 1,6-bisphosphate after Compound A p.o. in rats (Example E). Type of data set: in vivo, rat. How it is done: Compound A was administered by oral gavage to freely-feeding Sprague Dawley rats (250-300 g). The compound was prepared as a suspension in carboxymethylcellulose, and administered at a dose of 250 mg/kg. For the determination of liver metabolites, rats were serially sacrificed over the course of 24 hours after drug administration. Livers were freeze-clamped, homogenized in perchloric acid, neutralized, and then analyzed for Compound B by anion exchange HPLC.
For the determination of plasma metabolites, rats were instrumented with carotid catheters prior to oral dosing. Blood samples were withdrawn via the catheters at appropriate time points over the course of 8 hours post drug administration. Plasma was prepared from the blood samples by centrifugation, and plasma protein precipitated by the addition of methanol to 60%. Compound A metabolites were quantitated by reverse phase HPLC in the deproteinated plasma samples. A C18 column (1.4 cm×250 mm) was equilibrated with 10 mM sodium phosphate, pH 5.5 and eluted with a gradient from this buffer to acetonitrile. Detection was at 254 nm.
The effect of Compound A on blood glucose and hepatic fructose 1,6-bisphosphate levels was determined in 18-hour fasted Sprague-Dawley rats (250-300 g). Animals were dosed as described above. At appropriate time points post drug administration, rats were anesthetized with halothane and a liver biopsy (approx. 1 g) was taken, as well as a blood sample (2 mL) from the posterior vena cava. A heparin flushed syringe and needle was used for blood collection. The liver sample was immediately homogenized in ice-cold 10% perchloric acid (3 mL), centrifuged, and the supernatant neutralized with ⅓ rd volume of 3 M KOH/[…]. Following centrifugation and filtration, the neutralized extract was analyzed for fructose 1,6-bisphosphate content as described for isolated hepatocytes in Example C. Blood glucose was measured by means of a Hemocue analyzer (Hemocue Inc, Mission Viejo, Calif.).

Setting [4] is: single 250 mg/kg dose p.o., 18-hour fasted rats.

One may read the IC50 as the concentration at which inhibition is half-maximal.

`CCc1cc(F)c(N)c2nc(-c3ccc(P(=O)(O)O)o3)n(CC(C)C)c12` [Compound E] gave a Liver conc. with Sprague-Dawley rats [1] of 38.4 nmol/g. The “intracellular fructose 1,6-bisphosphate” value in the data set on rat hepatocytes was “dose-dependent elevation”.
Take `CC(=O)OC[C@H]1O[C@@H](n2cnc(C(N)=O)c2Br)[C@H](OC(C)=O)[C@@H]1OC(C)=O` [Compound A]: the IC50 in data set [2] came out at 50 µM; in the data set on rat hepatocytes (Hepatocyte, read-out: IC50, inhibition of glucose production) it was 50 µM. The “intracellular fructose 1,6-bisphosphate” value in the data set on rat hepatocytes was “dose-dependent elevation”. Also, the plasma metabolites entry in the data set on Sprague-Dawley rats [3] (Compound A 250 mg/kg p.o., over 8 hours) is “rapidly deacetylated at all three positions”. Besides, the liver metabolites entry with Sprague-Dawley rats [3] (Compound A 250 mg/kg p.o., over 24 hours) is recorded as “efficiently converted to Compound B”. Moreover, the “duration of blood glucose lowering” value with Sprague-Dawley rats [3] (setting [4]) is reported as “approximately 8 hours”. Moreover, the “hepatic fructose-1,6-bisphosphate levels” value in the data set on Sprague-Dawley rats [3] (setting [4]) is on record as “elevation of hepatic fructose-1,6-bisphosphate levels”.
